The numbers were not newly measured in patent US9629386B2, “Nutrition composition” (AJINOMOTO CO., INC., priority 2008, dated 2017), which cites them from elsewhere.

The series concerns CRP and nutrition condition. Conditions: 1.2 g to 11 dialysis patients for 12 weeks.

Take ω-3 fatty acid: the CRP entry is on record as “did not decrease CRP” and the nutrition condition result is reported as “did not improve nutrition condition”.
